Assay results as given in patent publication US5607948A, “Dipiperidine derivatives” (Sumitomo Pharmaceuticals Co., Ltd., priority 1993, dated 1997).

Key:
[1] = test system: platelet aggregation in platelet-rich plasma (PRP); assay: Platelet aggregation inhibiting effect (ADP-induced aggregation in platelet-rich plasma); format: cell-based, human (healthy man); details: Homo sapiens, PRP of a healthy person, ADP final concentration 3 μg/ml, 37° C., read-out: IC50 (concentration needed to inhibit the platelet aggregation by 50%)
Experimental: Blood was collected from the elbow vein of a healthy person, to which was added 3.8% sodium citrate of 1/10 times by volume the blood. This was centrifuged at 1000 rpm (150 g) for 10 minutes, and the resulting supernatant of a platelet-rich plasma (PRP) was collected. 2 μl of a solution of a test compound was added to 200 μl of the PRP and kept at 37° C. for 2 minutes while stirring at 1000 rpm. Then, 22 μl of a platelet aggregation promoter of ADP (adenosine diphosphate, final concentration: 3 μg/ml) was added. The degree of platelet aggregation of the sample was measured by colorimetry, using a hematracer (ex Niko Bioscience Co.). The platelet aggregation inhibiting activity of the test compound was represented by IC50, which indicates the concentration of the compound that was needed to inhibit the platelet aggregation by 50%.

[2] = test system: Fibronectin; assay: Bonding of platelets to fibronectin; format: binding; details: activated, paraformaldehyde-fixed platelets; plate coated with fibronectin 5 μg/ml; 37° C. 2 hours; read-out: IC50, inhibition of bonding of platelets to Fibronectin
Experimental: (§1) 50 ng/ml of PGI2 was added to the PRP sample and subjected to centrifugation at 11000 rpm for 2 minutes, by which the platelets were precipitated. The platelet precipitate was washed with 3.8 mM Hepes buffer (pH 7.4, Tyrode-Hepes buffer) containing 0.14 M NaCl, 2.7 mM KCl, 3.7 mM NaH2 PO4, 0.98 mM MgCl2, 1 mg/ml of glucose, 50 ng/ml of PGI2 and 0.35% BSA. 5 μM epinephrine and 30 μM ADP were added in this order and left at room temperature for 5 minutes, by which the platelets were activated. These were then transferred into a 0.05% paraformaldehyde solution and left at room temperature for 30 minutes, whereby the platelets were fixed in the solution. The thus-fixed platelets were suspended in the Hepes buffer at a concentration of 2×10^8 ml^-1.
(§2) Fibrinogen (ex Kabi Co.), fibronectin (ex Sigma Co.) or collagen (ex Horm Co.) was diluted with 0.1 M NaHCO3 to have a concentration of 5 μg/ml, put into each well of a 96-well microplate (ex Nunc Co.) at 200 μl/well and left at 4° C. overnight. Then, the plate was washed with a phosphate buffered saline (PBS) and blocked with 3% BSA at 37° C. for 1 hour. To the plate were added the platelet suspension (final concentration: 10^8 ml^-1) and a varying concentration of a test compound (total amount: 200 μl/well), and the plate was kept at 37° C. for 2 hours. Then, this was washed with PBS, and 2 μg/ml of an anti-CD9 monoclonal antibody was added and kept at 37° C. for 60 minutes. Next, this was treated with a 1/1000 dilution of an enzyme (HRP)-labeled anti-mouse IgG polyclonal antibody at 37 °C. for 60 minutes, and 100 μl/well of an HRP-coloration substrate (0.1 M phosphate buffer with pH 5, containing 0.4 mg/ml of o-phenylenediamine, 0.01% H2 O2 and 0.1 M citric acid) was added and reacted at room temperature for 15 minutes. By adding 20 μl/well of 4.5 M H2 SO4, the reaction was stopped. Then, the absorbance of the thus-reacted sample at 490 nm was measured. […]

[3] = test system: Collagen; assay: Bonding of platelets to collagen; format: binding; details: activated, paraformaldehyde-fixed platelets; plate coated with collagen 5 μg/ml; 37° C. 2 hours; read-out: IC50, inhibition of bonding of platelets to Collagen
Experimental: as §1, §2

[4] = target: T1, Fibrinogen (Homo sapiens, UniProt P05106+P08514); assay: Bonding of platelets to fibrinogen; format: binding; details: activated, paraformaldehyde-fixed platelets; plate coated with fibrinogen 5 μg/ml; 37° C. 2 hours; read-out: IC50, inhibition of bonding of platelets to Fibrinogen
T1 construct: endogenous in cells
Experimental: as §1, §2

T1 sequence (P08514 32-887 limits assumed): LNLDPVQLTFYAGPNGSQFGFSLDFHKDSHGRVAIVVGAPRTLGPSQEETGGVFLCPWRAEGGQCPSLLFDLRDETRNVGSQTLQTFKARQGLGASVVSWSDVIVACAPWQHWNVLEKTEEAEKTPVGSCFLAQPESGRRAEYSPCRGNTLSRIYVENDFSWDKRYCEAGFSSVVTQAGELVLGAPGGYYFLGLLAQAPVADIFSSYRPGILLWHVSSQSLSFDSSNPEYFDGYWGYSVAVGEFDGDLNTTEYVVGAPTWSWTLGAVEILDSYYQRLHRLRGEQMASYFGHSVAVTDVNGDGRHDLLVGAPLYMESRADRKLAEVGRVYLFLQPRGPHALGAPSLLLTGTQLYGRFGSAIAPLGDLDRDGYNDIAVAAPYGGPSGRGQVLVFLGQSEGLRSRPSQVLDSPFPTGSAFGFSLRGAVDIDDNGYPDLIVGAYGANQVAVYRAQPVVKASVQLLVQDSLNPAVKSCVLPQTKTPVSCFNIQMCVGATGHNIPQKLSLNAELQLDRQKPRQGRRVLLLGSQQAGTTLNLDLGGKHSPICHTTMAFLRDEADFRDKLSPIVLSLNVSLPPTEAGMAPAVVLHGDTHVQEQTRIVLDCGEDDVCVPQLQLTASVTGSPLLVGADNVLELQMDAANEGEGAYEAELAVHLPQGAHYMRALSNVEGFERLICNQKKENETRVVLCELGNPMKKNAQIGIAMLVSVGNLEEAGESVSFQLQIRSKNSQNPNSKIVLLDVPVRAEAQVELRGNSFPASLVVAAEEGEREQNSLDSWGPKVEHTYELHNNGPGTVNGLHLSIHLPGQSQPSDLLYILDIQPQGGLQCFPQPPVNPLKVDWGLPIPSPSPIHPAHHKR
T1 sequence (P08514 891-1039 limits assumed): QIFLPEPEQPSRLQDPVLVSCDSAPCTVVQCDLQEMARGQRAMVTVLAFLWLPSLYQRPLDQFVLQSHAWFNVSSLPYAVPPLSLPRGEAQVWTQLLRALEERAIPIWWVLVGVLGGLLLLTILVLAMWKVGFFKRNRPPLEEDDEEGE
T1 sequence (P05106 27-788): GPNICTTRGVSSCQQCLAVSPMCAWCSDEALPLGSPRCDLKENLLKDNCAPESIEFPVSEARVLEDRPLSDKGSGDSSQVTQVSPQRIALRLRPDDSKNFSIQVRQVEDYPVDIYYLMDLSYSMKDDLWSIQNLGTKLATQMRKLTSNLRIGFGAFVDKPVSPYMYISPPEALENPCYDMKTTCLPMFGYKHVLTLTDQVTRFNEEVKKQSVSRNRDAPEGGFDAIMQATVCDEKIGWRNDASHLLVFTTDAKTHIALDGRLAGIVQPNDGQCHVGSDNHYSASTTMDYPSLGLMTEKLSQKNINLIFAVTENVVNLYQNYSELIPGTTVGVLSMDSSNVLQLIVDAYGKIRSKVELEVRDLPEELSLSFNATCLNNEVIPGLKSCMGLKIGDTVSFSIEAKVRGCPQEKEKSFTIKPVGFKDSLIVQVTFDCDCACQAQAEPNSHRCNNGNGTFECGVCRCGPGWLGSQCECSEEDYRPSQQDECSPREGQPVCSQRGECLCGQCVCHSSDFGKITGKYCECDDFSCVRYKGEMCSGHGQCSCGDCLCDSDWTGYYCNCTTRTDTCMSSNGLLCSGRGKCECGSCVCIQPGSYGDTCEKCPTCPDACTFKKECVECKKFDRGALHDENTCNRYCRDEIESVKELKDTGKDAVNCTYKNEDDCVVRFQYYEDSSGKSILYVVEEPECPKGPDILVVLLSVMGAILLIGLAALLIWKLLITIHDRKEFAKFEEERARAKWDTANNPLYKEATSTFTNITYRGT

SMILES: O=C(O)COC1CCN(C(=O)[C@H](Cc2ccccc2)NC(=O)CCC2CCNCC2)CC1 [Compound (21), (1-(N-(3-(4-piperidyl)propanoyl)-L-phenylalanyl)-4-piperidyloxy)acetic acid]
- IC50 [1]: 917 nM

SMILES: O=C(O)CCC1CCN(C(=O)[C@H](Cc2ccc(O)cc2)NC(=O)COC2CCNCC2)CC1 [Compound (44), 3-(1-(N-(4-piperidyloxyacetyl)-L-tyrosyl)-4-piperidyl)propanoic acid]
- IC50 [1]: 630 nM

SMILES: COc1ccc(C[C@H](NC(=O)CCCC2CCNCC2)C(=O)N2CCC(OCC(=O)O)CC2)cc1 [Compound (18), (1-(N-(4-(4-piperidyl)butanoyl)-O-methyl-L-tyrosyl)-4-piperidyloxy)acetic acid]
- IC50 [2]: 7200 nM
- IC50 [3]: > 100000 nM
- IC50 [1]: 680 nM
- IC50 [4]: 63000 nM

SMILES: CC[C@H](C)[C@H](NC(=O)CCC1CCNCC1)C(=O)N1CCC(OCC(=O)O)CC1 [Compound (27), (1-(N-(3-(4-piperidyl)propanoyl)-L-isoleucyl)-4-piperidyloxy)acetic acid]
- IC50 [1]: 507 nM

SMILES: O=C(O)COC1CCN(C(=O)[C@H](Cc2c[nH]c3ccccc23)NC(=O)CCC2CCNCC2)CC1 [Compound (28), (1-(N-(3-(4-piperidyl)propanoyl)-L-tryptophyl)-4-piperidyloxy)acetic acid]
- IC50 [1]: 438 nM

SMILES: COc1ccc(C[C@H](NC(=O)COC2CCNCC2)C(=O)N2CCC(CCC(=O)O)CC2)cc1 [Compound (37)]
- IC50 [1]: 117 nM

SMILES: O=C(O)COC1CCN(C(=O)[C@H](Cc2ccc(O)cc2)NC(=O)CCC2CCNCC2)CC1 [Compound (20), (1-(N-(3-(4-piperidyl)propanoyl)-L-tyrosyl)-4piperidyloxy)acetic acid]
- IC50 [1]: 135 nM

SMILES: C[C@H](NC(=O)CCC1CCNCC1)C(=O)N1CCC(OCC(=O)O)CC1 [Compound (23), (1-(N-(3-(4-piperidyl)propanoyl)-L-alanyl)-4-piperidyloxy)acetic acid]
- IC50 [1]: 389 nM

SMILES: O=C(O)COC1CCN(C(=O)[C@@H]2CCCN2C(=O)CCC2CCNCC2)CC1 [Compound (25), (1-(N-(3-(4-piperidyl)propanoyl)-L-prolyl)-4-piperidyloxy)acetic acid]
- IC50 [1]: 316 nM

SMILES: O=C(O)COC1CCN(C(=O)CNC(=O)CCC2CCNCC2)CC1 [Compound (24)]
- IC50 [1]: 2380 nM

SMILES: COc1ccc(C[C@H](NC(=O)COC2CCNCC2)C(=O)N2CCC(OCC(=O)O)CC2)cc1 [Compound (15)]
- IC50 [2]: 240 nM
- IC50 [3]: > 100000 nM
- IC50 [1]: 48 nM
- IC50 [4]: 250 nM

SMILES: CC(C)[C@H](NC(=O)CCC1CCNCC1)C(=O)N1CCC(OCC(=O)O)CC1 [Compound (22), (1-(N-(3-(4-piperidyl)propanoyl)-L-valyl)-4-piperidyloxy)acetic acid]
- IC50 [1]: 1100 nM

SMILES: O=C(O)COC1CCN(C(=O)[C@H](Cc2ccc(O)cc2)NC(=O)COC2CCNCC2)CC1 [Compound (19), (1-(N-(4-piperidyloxyacetyl)-L-tyrosyl)-4-piperidyloxy)acetic acid]
- IC50 [1]: 61 nM

SMILES: O=C(O)COC1CCN(C(=O)[C@H](CO)NC(=O)CCC2CCNCC2)CC1 [Compound (29), (1-(N-(3-(4-piperidyl)propanoyl)-L-seryl)-4-piperidyloxy)acetic acid]
- IC50 [1]: 886 nM

SMILES: COc1ccc(C[C@H](NC(=O)CCC2CCNCC2)C(=O)N2CCC(OCC(=O)O)CC2)cc1 [Compound (12)]
- IC50 [2]: 67000 nM
- IC50 [3]: > 100000 nM
- IC50 [1]: 60 nM
- IC50 [4]: 450 nM

SMILES: O=C(O)CCC1CCN(C(=O)[C@H](Cc2ccc(O)cc2)NC(=O)CCC2CCNCC2)CC1 [Compound (42), 3-(1-(N-(3-(4-piperidyl)propanoyl)-L-tyrosyl)-4-piperidyl)propanoic acid]
- IC50 [1]: 1730 nM

SMILES: CC(C)C[C@H](NC(=O)CCC1CCNCC1)C(=O)N1CCC(OCC(=O)O)CC1 [Compound (26), (1-(N-(3-(4-piperidyl)propanoyl)-L-leucyl)-4-piperidyloxy)acetic acid]
- IC50 [1]: 929 nM

SMILES: COc1ccc(C[C@H](NC(=O)CCC2CCNCC2)C(=O)N2CCC(CCC(=O)O)CC2)cc1 [Compound (35), 3-(1-(N-(3-(4-piperidyl)propanoyl)-O-methyl-L-tyrosyl)-4-piperidyl)propanoic acid]
- IC50 [1]: 712 nM
